Assay results: patent publication US20040219512A1, “Screening methods for cataractogenic risk” (Pfizer Inc, priority 2003, published 2004)

Experiments:
[1] = tested on: chloride channels on the lens; details: literature, Zhang, J. J. (1994); cited from earlier work
Rodent lens explants = tested on: Rodent lens explants
Protocol: Rodent lenses were surgically removed and placed in tissue culture 199 (TC199) media (Invitrogen) supplemented with bicarbonate buffer with and without 10 mM TEA (Sigma Aldrich Co.). Darkfield photomicrographs of the cells were taken over a seven day period.

SRA 01/04 cells = details: concentrations of TEA greater than five mM
Description: Preparation of Lens Epithelial Cell Line Culture Cells from the cell line, SRA 01/04 (deposited in the National Institute of Bioscience and Human-Technology Agency of Industrial Science and Technology, Ibaraki, Japan, international deposit No. FERM BP-5454) were thawed and plated on the bottom of a 25 square centimeter tissue culture flask (Falcon™ Flask, BD Biosciences, Lincoln Park, N.J.) and grown in high-glucose DMEM supplemented with 15% of FBS (Invitrogen, Grand Island, N.Y.) and 1% of penicillin/streptomysin (Invitrogen) at 37° C. in 5% CO2 and 95% air environment. The medium was changed twice a week. When confluence of 90-100% was reached (about 7-14 days), the medium was removed from the culture flask and the cells on the bottoms were washed with one ml of trypsin-EDTA (0.05% trypsin and EDTA, Invitrogen). […]
Approximately 15 μl of the cell suspension was pipetted onto a glass coverslip (Warner Instruments, Hamden, Conn., USA) placed on the transparent bottoms of a recording chamber mounted on an inverted differential interference contrast microscope (Eclipse TE300, Nikon, Tokyo, Japan). Whole cell currents were measured under the whole-cell configuration at room temperature (24-26° C.) using a multiclamp 700A dual channel multi-purpose microelectrode amplifier (Axon Instruments, Foster City, Calif., USA). […]

SMILES	effect on chloride channels on the lens [1]	clouding of the lens compared with control (Rodent lens explants; 10 mM TEA in TC199 media, photomicrographs over seven days)	pixel intensity histogram of lens explants (Rodent lens explants; 10 mM TEA, imaged after five days in culture)	additional current block at higher concentration (SRA 01/04 cells)
CC/C(=C(\c1ccccc1)c1ccc(OCCN(C)C)cc1)c1ccccc1 [tamoxifen]	blocks chloride channels on the lens	–	–	–
CC[N+](CC)(CC)CC [TEA, tetraethylammonium]	–	increased clouding of the lens	rightward shift in the intensity histogram	no significant additional current block
